In patent publication US20220324835A1 (Nurix Therapeutics, Inc., priority 2018, published 2022):

Tests used:
[1] = test system: T-cell; assay: IL-2 secretion from T-cells stimulated with anti-CD3 antibody alone (Biological Example 2); format: cell-based; settings: primary human total T-cells, read-out: IL-2 secretion, Anti-CD3 stimulation, fold change over baseline; for fold induction at 1 µM: 1 μM compound; for fold induction at 8 µM: 8 μM compound
[2] = test system: T-cell; assay: CD25 cell surface staining on T-cells co-stimulated with anti-CD3 and anti-CD28 antibody (Biological Example 2); format: cell-based, human; settings: Homo sapiens, T-cell, primary human total T-cells, baseline = anti-CD3/anti-CD28 stimulated cells without inhibitor, read-out: CD25 staining, Anti-CD3/Anti-CD28 stimulation, fold change over baseline; for fold induction at 0.3 µM: 0.3 μM compound; for fold induction at 1 µM: 1 μM compound; for fold induction at 4 µM: 4 μM compound
Procedure, shortened: (§1)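 No assay protocol given; T-cells stimulated with anti-CD3 alone or anti-CD3 plus anti-CD28, with or without Cbl-b inhibitor. Activation read as IL-2 secretion or CD25 surface staining, expressed as fold over baseline from uninhibited cells […].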

[3] = test system: T-cell; assay: CD25 cell surface staining on T-cells stimulated with anti-CD3 antibody alone (Biological Example 2); format: cell-based; settings: primary human total T-cells, baseline = anti-CD3/anti-CD28 stimulated cells without inhibitor, read-out: CD25 staining, Anti-CD3 stimulation, fold change over baseline; for fold induction at 1 µM: 1 μM compound; for fold induction at 8 µM: 8 μM compound
[4] = target: T1, Cbl-b (Homo sapiens, UniProt Q13191); assay: Cbl-b activity assay (Cbl-b inhibition assay), TR-FRET of Cbl-b interaction with UbcH5B-Ub; format: biochemical; settings: assay buffer with 100 mM NaCl, 60 nM Src kinase; read-out: Cbl-b activity IC50
T1 sequence (Q13191 36-427): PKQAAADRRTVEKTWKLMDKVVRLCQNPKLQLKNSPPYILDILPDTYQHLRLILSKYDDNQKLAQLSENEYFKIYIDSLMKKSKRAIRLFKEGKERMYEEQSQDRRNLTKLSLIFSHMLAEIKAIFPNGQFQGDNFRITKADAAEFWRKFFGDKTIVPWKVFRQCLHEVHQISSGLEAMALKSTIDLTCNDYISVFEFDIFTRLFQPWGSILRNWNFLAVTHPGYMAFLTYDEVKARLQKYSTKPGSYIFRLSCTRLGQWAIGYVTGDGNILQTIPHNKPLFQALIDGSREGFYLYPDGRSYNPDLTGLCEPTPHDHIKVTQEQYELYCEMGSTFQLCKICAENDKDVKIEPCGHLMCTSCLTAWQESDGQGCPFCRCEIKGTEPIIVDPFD
Procedure, shortened: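 TR-FRET readout of Cbl-b binding to Bodipy-fluorescein N-terminally labeled Ub conjugated to UbcH5B C85K, measured with compound present. After compound incubation, 60 nM Src kinase with 1 mM ATP and 5 mM MgCl2 (final) was added for 1.5 h, then a further 1 h incubation; asterisked values used 50 mM NaCl buffer and 30 nM Src.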

[5] = test system: T-cell; assay: IL-2 secretion from T-cells co-stimulated with anti-CD3 and anti-CD28 antibody (Biological Example 2); format: cell-based, human; settings: Homo sapiens, T-cell, primary human total T-cells, baseline = anti-CD3/anti-CD28 stimulated cells without inhibitor, read-out: IL-2 secretion, Anti-CD3/Anti-CD28 stimulation, fold change over baseline; for fold induction at 0.3 µM: 0.3 μM compound; for fold induction at 1 µM: 1 μM compound; for fold induction at 4 µM: 4 μM compound
Procedure, shortened: as §1

[6] = target: Cbl-b (residues 36-427) (Homo sapiens, UniProt Q13191); assay: Cbl-b binding assay (SPR, Biacore T200); settings: 20° C., 1:1 binding model
Chain of Cbl-b (residues 36-427) (Q13191 36-427): as above
Procedure, shortened: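 Affinities derived from global 1:1 steady-state or kinetic fits of double-referenced, solvent-corrected SPR data, 20 °C, NeutrAvidin-capture chip. Compound series (top 100 or 50 μM, 8–10 points) injected 50 s, 90–180 s dissociation. Asterisked values used 50 mM instead of 100 mM NaCl and 30 nM Src kinase.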

[7] = target: T1, Cbl-b; assay: Cbl-b inhibition assay (Cbl-b activity assay, FRET, Biological Example 1; 100 mM NaCl, 60 nM Src kinase); format: biochemical; settings: upper bound stated in text lists; read-out: IC50 values in the Cbl-b inhibition assay of Biological Example 1
Procedure, shortened: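 N-terminally biotinylated Avi-tagged Cbl-b was mixed with Src kinase, UbcH5B covalently conjugated to Bodipy-fluorescein ubiquitin, and streptavidin-terbium. Src phosphorylation lets Cbl-b bind UbcH5B-Ub, giving terbium-fluorescein FRET; inhibition is read as loss of FRET signal.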

Compound | fold induction at 1 µM [1] | fold induction at 8 µM [1] | fold induction at 0.3 µM [2] | fold induction at 1 µM [2] | fold induction at 4 µM [2] | fold induction at 1 µM [3] | fold induction at 8 µM [3] | IC50 [4] | fold induction at 0.3 µM [5] | fold induction at 1 µM [5] | fold induction at 4 µM [5] | Kd [6] | IC50 [7]
Cn1cnnc1CC(C)(C)c1cccc(NC(=O)c2cc(C(=O)N3CC[C@H](O)C3)cc(C(F)(F)F)n2)c1 [Compound 475, (S)-4-(3-hydroxypyrrolidine-1-carbonyl)-N-(3-(2-methyl-1-(4-methyl-4H-1,2,4-triazol-3-yl)propan-2-yl)phenyl)-6-(trifluoromethyl)picolinamide] | 0.101 to 0.15 | > 0.201 | 1.01 to 1.3 | 1.01 to 1.3 | 1.01 to 1.3 | 0.801 to 1 | > 1 | < 100 nM | 1.01 to 2.5 | 2.51 to 5 | 5 to 7.5 | 100 to 300 nM | ≤ 100 nM
C[C@H](Cc1nncn1C)c1cccc(N2Cc3c(cc(CN4CC(O)C(F)(F)C4)cc3C(F)(F)F)C2=O)c1 (stereo partly drawn) [Compound 417, 6-((3,3-difluoro-4-hydroxypyrrolidin-1-yl)methyl)-2-(3-((R)-1-(4-methyl-4H-1,2,4-triazol-3-yl)propan-2-yl)phenyl)-4-(trifluoromethyl)isoindolin-1-one] | 0.101 to 0.15 | > 0.201 | 1.01 to 1.3 | 1.31 to 1.5 | 1.31 to 1.5 | > 1 | > 1 | < 100 nM | 2.51 to 5 | 5 to 7.5 | > 7.5 | < 100 nM | ≤ 100 nM
Cn1cnnc1[C@H](F)C(C)(F)c1cccc(N2Cc3c(cccc3C(F)(F)F)C2=O)c1 (stereo in doubt) [Compound 479, 2-(3-((1S,2S)-1,2-difluoro-1-(4-methyl-4H-1,2,4-triazol-3-yl)propan-2-yl)phenyl)-4-(trifluoromethyl)isoindolin-1-one] | < 0.05 | 0.101 to 0.15 | 1.01 to 1.3 | 1.01 to 1.3 | 1.01 to 1.3 | 0.601 to 0.8 | 0.801 to 1 | < 100 nM | 1.01 to 2.5 | 1.01 to 2.5 | 1.01 to 2.5 | 100 to 300 nM | ≤ 100 nM
Cn1cnnc1C(F)(F)[C@](C)(F)c1cccc(N2Cc3c(cc(CN4CC[C@H](S(C)(=O)=O)C4)cc3C(F)(F)F)C2=O)c1 [Compound 457, 6-(((S)-3-(Methylsulfonyl)pyrrolidin-1-yl)methyl)-2-(3-((R)-1,1,2-trifluoro-1-(4-methyl-4H-1,2,4-triazol-3-yl)propan-2-yl)phenyl)-4-(trifluoromethyl)isoindolin-1-one] | 0.101 to 0.15 | > 0.201 | 1.01 to 1.3 | 1.01 to 1.3 | 1.01 to 1.3 | 0.801 to 1 | > 1 | < 100 nM | 2.51 to 5 | 2.51 to 5 | > 7.5 | < 100 nM | ≤ 100 nM
C[C@H](Cc1n[nH]cc1C(F)(F)F)c1cccc(N2Cc3c(cc(C(=O)N4CC[C@H](O)C4)cc3C(F)(F)F)C2=O)c1 [Compound 465, 6-((S)-3-hydroxypyrrolidine-1-carbonyl)-4-(trifluoromethyl)-2-(3-((R)-1-(4-(trifluoromethyl)-1H-pyrazol-3-yl)propan-2-yl)phenyl)isoindolin-1-one] | 0.051 to 0.1 | 0.151 to 0.2 | 1.01 to 1.3 | 1.01 to 1.3 | 1.01 to 1.3 | 0.801 to 1 | > 1 | < 100 nM | 1.01 to 2.5 | 1.01 to 2.5 | 2.51 to 5 | < 100 nM | ≤ 100 nM
C[C@H](Cc1nncn1C)c1cccc(N2Cc3c(cc(CO)cc3C(F)(F)F)C2=O)c1 [Compound 392, (R)-6-(hydroxymethyl)-2-(3-(1-(4-methyl-4H-1,2,4-triazol-3-yl)propan-2-yl)phenyl)-4-(trifluoromethyl)isoindolin-1-one] | 0.151 to 0.2 | > 0.201 | 1.01 to 1.3 | 1.01 to 1.3 | 1.31 to 1.5 | > 1 | > 1 | < 100 nM | 2.51 to 5 | 5 to 7.5 | > 7.5 | < 100 nM | ≤ 100 nM
C[C@H](Cc1nncn1C)c1cccc(N2Cc3c(cc([C@H]4CCCNC4)cc3C(F)(F)F)C2=O)c1 [Compound 383, 2-(3-((R)-1-(4-methyl-4H-1,2,4-triazol-3-yl)propan-2-yl)phenyl)-6-((R)-piperidin-3-yl)-4-(trifluoromethyl)isoindolin-1-one] | > 0.201 | > 0.201 | 1.31 to 1.5 | 1.51 to 1.75 | 1.51 to 1.75 | 0.801 to 1 | > 1 | < 100 nM | 2.51 to 5 | 5 to 7.5 | > 7.5 | 100 to 300 nM | ≤ 100 nM
C[C@H](Cc1nncn1C)c1cccc(N2Cc3c(cc(C4CC4)nc3C3CC3)C2=O)c1 [Compound 370, 4,6-dicyclopropyl-2-{3-[(2R)-1-(4-methyl-1,2,4-triazol-3-yl)propan-2-yl]phenyl}-3H-pyrrolo[3,4-c]pyridin-1-one] | 0.051 to 0.1 | > 0.201 | 1.01 to 1.3 | 1.01 to 1.3 | > 1.76 | 0.601 to 0.8 | 0.801 to 1 | 100 to 300 nM | 1.01 to 2.5 | 1.01 to 2.5 | 5 to 7.5 | 100 to 300 nM | ≤ 300 nM
C[C@H](Cc1nncn1C)c1cccc(N2Cc3c(cc(-n4cccn4)cc3C(F)(F)F)C2=O)c1 [Compound 384, (R)-2-(3-(1-(4-methyl-4H-1,2,4-triazol-3-yl)propan-2-yl)phenyl)-6-(1H-pyrazol-1-yl)-4-(trifluoromethyl)isoindolin-1-one] | > 0.201 | > 0.201 | 1.31 to 1.5 | 1.51 to 1.75 | 1.51 to 1.75 | > 1 | > 1 | < 100 nM | 2.51 to 5 | > 7.5 | > 7.5 | < 100 nM | ≤ 100 nM
CC(O)c1cc2c(c(C(F)(F)F)c1)CN(c1cccc([C@H](C)Cc3nncn3C)c1)C2=O (stereo partly drawn) [Compound 436, 6-(1-hydroxyethyl)-2-(3-((R)-1-(4-methyl-4H-1,2,4-triazol-3-yl)propan-2-yl)phenyl)-4-(trifluoromethyl)isoindolin-1-one] | 0.151 to 0.2 | > 0.201 | 1.01 to 1.3 | 1.31 to 1.5 | 1.31 to 1.5 | 0.801 to 1 | > 1 | < 100 nM | 2.51 to 5 | 5 to 7.5 | > 7.5 | < 100 nM | ≤ 100 nM
